Assay results published in patent publication US7459444B2, “Inhibitors of chymase” (Janssen Pharmaceutica N.V., priority 2004, dated 2008).

target: T1, human skin chymase (Homo sapiens, UniProt P23946); experiment: Enzyme-catalyzed hydrolysis assay (chymase inhibition); assay type: biochemical; settings: 10 nM enzyme, 0.7 mM Suc-Ala-Ala-Pro-Phe-pNa, pH 8.0, 37° C., 30 minutes
T1 construct: using human skin chymase (Cortex Biochem); purchased Cortex Biochem
T1 sequence (P23946 22-247): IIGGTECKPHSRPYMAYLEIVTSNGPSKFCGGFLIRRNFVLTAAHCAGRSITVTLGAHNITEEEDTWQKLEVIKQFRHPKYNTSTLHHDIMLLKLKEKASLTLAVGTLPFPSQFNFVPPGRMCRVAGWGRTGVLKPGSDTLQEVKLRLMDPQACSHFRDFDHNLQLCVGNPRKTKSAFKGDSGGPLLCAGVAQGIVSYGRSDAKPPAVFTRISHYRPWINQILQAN
Description: Enzyme-catalyzed hydrolysis rates were measured spectro-photometrically using human skin chymase (Cortex Biochem), a chromogenic substrate (Suc-Ala-Ala-Pro-Phe-pNa) (Bachem) in aqueous buffer (450 mM Tris, 1800 mM NaCl, pH 8.0), and a microplate reader (Molecular Devices). […] Percent inhibition was calculated by comparing the initial reaction slopes of the samples without inhibitor to those with inhibitor. IC50 values were determined using a four parameter fit logistics model. The term “NT” indicates a compound that was not tested.

How did the IC50 turn out when `COc1ccccc1/C=C/NC(=O)C(c1csc2ccc(Cl)cc12)P(C)(=O)O` (stereo not shown) [Cpd 145] was run?
The IC50 was 0.035 ± 0.02 µM.

With `COC(=O)COc1c(NC(=O)C(c2cccc3ccccc23)P(=O)(O)O)ccc2ccccc12` (stereo not shown) [Cpd 134, [2-(2-Naphthalen-1-yl-2-phosphono-acetylamino)-naphthalen-1-yloxy]-acetic acid methyl ester] as the compound, how does the IC50 read?
Its IC50 is 8.11 ± 4.75 µM.

`Cn1cc(C(C(=O)N/C=C/c2cccc(F)c2)P(C)(=O)O)c2cc(Cl)ccc21` (stereo not shown) [Cpd 6] was tested. Which IC50 did it give?
Its IC50 is 0.02 µM.

`CP(=O)(O)C(C(=O)N/C=C/c1cc(F)ccc1F)c1csc2ccc(Cl)cc12` (stereo not shown) [Cpd 169] was tested. Which IC50 did it give?
Its IC50 is 0.042 µM.

For `CC(C)OC(=O)c1cc2ccccc2cc1NC(=O)C(c1cccc2ccccc12)P(=O)(O)O` (stereo not shown) [Cpd 139], which IC50 is on record?
Its IC50 is 8.8 µM.

`O=C(Nc1cc2ccccc2cn1)C(c1cccc2ccccc12)P(=O)(O)O` (stereo not shown) [Cpd 137] was tested. Which IC50 did it give?
Its IC50 is 8.66 µM.

For `O=C(NC=Cc1cc(F)cc(F)c1)C(c1csc2ccc(Cl)cc12)P(=O)(O)O` (stereo not shown) [Cpd 199], which IC50 is on record?
Its IC50 is 0.0018 µM.

For `O=C(Nc1cc2ccccc2s1)C(c1cccc2ccccc12)P(=O)(O)O` (stereo not shown) [Cpd 64], which IC50 is on record?
The IC50 was 0.83 ± 0.08 µM.

`CP(=O)(O)C(C(=O)N/C=C/c1cccc(F)c1)c1csc2ccc(Cl)cc12` (stereo not shown) [Cpd 15] was tested. Which IC50 did it give?
Its IC50 is 0.052 ± 0.015 µM.

Which IC50 does the source give for `O=C(Nc1cccc(Oc2ccccc2)c1)C(c1cccc2ccccc12)P(=O)(O)O` (stereo not shown) [Cpd 138] here?
Its IC50 is 8.7 µM.

How did the IC50 turn out when `CP(=O)(O)C(C(=O)N/C=C/c1ccccc1NC(=O)NC(N)=O)c1csc2ccc(Cl)cc12` (stereo not shown) [Cpd 159] was run?
Its IC50 is 3 ± 0.19 µM.

Which IC50 does the source give for `O=C(Nc1ccc2ncccc2c1)C(c1cccc2ccccc12)P(=O)(O)O` (stereo not shown) [Cpd 79] here?
The IC50 was 1.6 µM.

For `O=C(Nc1ccc2ccccc2c1)C(c1nnn[nH]1)c1csc2ccc(Cl)cc12` (stereo not shown) [Cpd 88, 2-(5-Chloro-benzo[b]thiophen-3-yl)-n-naphthalen-2-yl-2-(1h-tetrazol-5-yl)-acetamide], which IC50 is on record?
Its IC50 is 2.04 ± 0.19 µM.

`Cn1cc(C(C(=O)Nc2ccc3ccccc3c2)P(=O)(O)O)c2cc(-c3ccc(F)cc3)ccc21` (stereo not shown) [Cpd 98, [[5-(4-Fluoro-phenyl)-1-methyl-1H-indol-3-yl]-(naphthalen-2-ylcarbamoyl)-methyl]-phosphonic acid] was tested. Which IC50 did it give?
Its IC50 is 2.9 µM.

How did the IC50 turn out when `O=C(Nc1cc2ccccc2cc1NC(=O)C(c1cccc2ccccc12)P(=O)(O)O)C1CCN(C(=O)c2ccc3ccccc3c2)CC1` (stereo not shown) [Cpd 141, [(3-{[1-(Naphthalene-2-carbonyl)-piperidine-4-carbonyl]-amino}-naphthalen-2-ylcarbamoyl)-naphthalen-1-yl-methyl]-phosphonic acid] was run?
The IC50 was 9.5 µM.

Which IC50 does the source give for `CP(=O)(O)C(C(=O)N/C=C/c1ccccn1)c1csc2ccc(Cl)cc12` (stereo not shown) [Cpd 150] here?
Its IC50 is 0.091 ± 0.02 µM.

With `COc1ccc(CCCP(=O)(O)C(C(=O)Nc2ccc3ccccc3c2)c2csc3ccc(Cl)cc23)cc1` (stereo not shown) [Cpd 53] as the compound, how does the IC50 read?
The IC50 was 0.49 ± 0.16 µM.

How did the IC50 turn out when `O=C(Nc1cc(NC(=O)C(c2cccc3ccccc23)P(=O)(O)O)cc2ccccc12)C1CCN(C(=O)c2ccc3ccccc3c2)CC1` (stereo not shown) [Cpd 8, [(4-{[1-(Naphthalene-2-carbonyl)-piperidine-4-carbonyl]-amino}-naphthalen-2-ylcarbamoyl)-naphthalen-1-yl-methyl]-phosphonic acid] was run?
Its IC50 is 0.021 ± 0.01 µM.

`CP(=O)(O)C(C(=O)NC=Cc1ccc(Cl)cc1)c1csc2ccc(Cl)cc12` (stereo not shown) [Cpd 78] was tested. Which IC50 did it give?
Its IC50 is 1.5 ± 0.43 µM.

How did the IC50 turn out when `COC(=O)COc1cc2ccccc2cc1NC(=O)C(c1cccc2ccccc12)P(=O)(O)O` (stereo not shown) [Cpd 123] was run?
Its IC50 is 6.6 µM.

Which IC50 does the source give for `O=C(Nc1ccc2ccccc2c1)C(c1csc2cc(Br)ccc12)P(=O)(O)O` (stereo not shown) [Cpd 76] here?
The IC50 was 1.43 ± 0.451 µM.

For `O=C(Nc1ccc2ccccc2n1)C(c1cccc2ccccc12)P(=O)(O)O` (stereo not shown) [Cpd 96], which IC50 is on record?
The IC50 was 2.8 µM.

With `Cn1cc(C(C(=O)Nc2ccc3ccccc3c2)P(=O)(O)O)c2cc(C(=O)O)ccc21` (stereo not shown) [Cpd 56, 1-Methyl-3-[(naphthalen-2-ylcarbamoyl)-phosphono-methyl]-1H-indole-5-carboxylic acid] as the compound, how does the IC50 read?
Its IC50 is 0.606 ± 0.13 µM.

Which IC50 does the source give for `O=C(Nc1ccc2ccsc2c1)C(c1cccc2ccccc12)P(=O)(O)O` (stereo not shown) [Cpd 59] here?
Its IC50 is 0.635 µM.

For `CP(=O)(O)C(C(=O)N/C=C/c1ccccc1Br)c1csc2ccc(Cl)cc12` (stereo not shown) [Cpd 164], which IC50 is on record?
Its IC50 is 0.1 ± 0.02 µM.

`CP(=O)(O)C(C(=O)NC=Cc1ccc(C#N)cc1)c1csc2ccc(Cl)cc12` (stereo not shown) [Cpd 157] was tested. Which IC50 did it give?
Its IC50 is 11 ± 1.2 µM.

`CN(Cc1cc2ccccc2cc1NC(=O)C(c1cccc2ccccc12)P(=O)(O)O)C1CCN(C(=O)c2ccc3ccccc3c2)CC1` (stereo not shown) [Cpd 102, {[3-({Methyl-[1-(naphthalene-2-carbonyl)-piperidin-4-yl]-amino}-methyl)-naphthalen-2-ylcarbamoyl]-naphthalen-1-yl-methyl}-phosphonic acid] was tested. Which IC50 did it give?
Its IC50 is 3.45 µM.

`O=C(Nc1ccc2ccccc2c1)C(c1cc2ccccc2s1)P(=O)(O)O` (stereo not shown) [Cpd 140, [(Benzo[b]thiophen-2-yl)-(naphthalen-2-ylcarbamoyl)-methyl]-phosphonic acid] was tested. Which IC50 did it give?
The IC50 was 9.2 ± 0.73 µM.

For `O=C(Nc1ccc2ccccc2c1)C(c1csc2ccc(-c3ccccc3)cc12)P(=O)(O)O` (stereo not shown) [Cpd 71, [(5-phenyl-benzo[b]thiophen-3-yl)-(naphthalen-2-ylcarbamoyl)-methyl]-phosphonic acid], which IC50 is on record?
The IC50 was 1 ± 0.3 µM.

`CP(=O)(O)C(C(=O)N/C=C/c1cccc(Br)c1)c1csc2ccc(Cl)cc12` (stereo not shown) [Cpd 167] was tested. Which IC50 did it give?
Its IC50 is 0.017 ± 0.04 µM.

`Cn1cc(C(C(=O)Nc2ccc3ccccc3c2)P(=O)(O)O)c2cc(F)ccc21` (stereo not shown) [Cpd 11] was tested. Which IC50 did it give?
The IC50 was 0.037 ± 0.01 µM.

For `O=C(Nc1cnc2ccccc2c1)C(c1cccc2ccccc12)P(=O)(O)O` (stereo not shown) [Cpd 57], which IC50 is on record?
Its IC50 is 0.609 µM.

`COc1cccc(/C=C/NC(=O)C(c2csc3ccc(Cl)cc23)P(C)(=O)O)c1OC` (stereo not shown) [Cpd 165] was tested. Which IC50 did it give?
The IC50 was 0.078 ± 0.03 µM.

With `Cn1cc(C(C(=O)Nc2ccc3ccccc3c2)P(=O)(O)O)c2cc(Br)ccc21` (stereo not shown) [Cpd 13] as the compound, how does the IC50 read?
Its IC50 is 0.04 ± 0.02 µM.

For `Cn1cc(C(C(=O)Nc2ccc3ccccc3c2)P(=O)(O)O)c2cccnc21` (stereo not shown) [Cpd 116], which IC50 is on record?
The IC50 was 5.4 µM.

With `O=C(Nc1ccc2c(c1)Cc1ccccc1-2)C(c1cccc2ccccc12)P(=O)(O)O` (stereo not shown) [Cpd 106] as the compound, how does the IC50 read?
The IC50 was 4.3 µM.

How did the IC50 turn out when `O=C(Nc1cc2ccccc2cc1CNC1CCCCC1)C(c1cccc2ccccc12)P(=O)(O)O` (stereo not shown) [Cpd 70, [(3-Cyclohexylaminomethyl-naphthalen-2-ylcarbamoyl)-naphthalen-1-yl-methyl]-phosphonic acid] was run?
Its IC50 is 0.93 ± 0.07 µM.

For `O=C(O)C(C(=O)Nc1ccc2ccccc2c1)c1csc2ccc(Cl)cc12` (stereo not shown) [Cpd 84, [(5-Chloro-benzo[b]thiophen-3-yl)-(naphthalen-2-ylcarbamoyl)-methyl]-carboxylic acid], which IC50 is on record?
The IC50 was 1.75 ± 0.285 µM.

How did the IC50 turn out when `O=C(Nc1cc2ccccc2cc1OCC=Cc1ccccc1)C(c1cccc2ccccc12)P(=O)(O)O` (stereo not shown) [Cpd 121] was run?
The IC50 was 5.9 µM.

`O=C(N/C=C/c1cccnc1)C(c1csc2ccc(Cl)cc12)P(=O)(O)O` (stereo not shown) [Cpd 25] was tested. Which IC50 did it give?
The IC50 was 0.109 ± 0.03 µM.

`O=C(N/C=C/c1ccccc1)C(c1cccc2ccccc12)P(=O)(O)O` (stereo not shown) [Cpd 37] was tested. Which IC50 did it give?
The IC50 was 0.25 ± 0.12 µM.

Which IC50 does the source give for `O=C(Nc1ccc2ccccc2c1)OCc1cc2ccccc2cc1NC(=O)C(c1cccc2ccccc12)P(=O)(O)O` (stereo not shown) [Cpd 105] here?
Its IC50 is 4.1 µM.

With `COc1ccc(CCN(C)C(=O)c2cc3ccccc3cc2NC(=O)C(c2cccc3ccccc23)P(=O)(O)O)cc1OC` (stereo not shown) [Cpd 115] as the compound, how does the IC50 read?
Its IC50 is 5.36 µM.

For `CN(CCCC1c2ccccc2C=Cc2ccccc21)Cc1cc2ccccc2cc1NC(=O)C(c1cccc2ccccc12)P(=O)(O)O` (stereo not shown) [Cpd 112], which IC50 is on record?
Its IC50 is 4.74 ± 1.65 µM.

For `O=C(Nc1cc2ccccc2cc1CNC1CCCC1)C(c1cccc2ccccc12)P(=O)(O)O` (stereo not shown) [Cpd 124], which IC50 is on record?
The IC50 was 6.7 µM.

How did the IC50 turn out when `O=C(Nc1cc2ccccc2cc1C(=O)N1CCC(c2c[nH]c3ccccc23)CC1)C(c1cccc2ccccc12)P(=O)(O)O` (stereo not shown) [Cpd 83] was run?
Its IC50 is 1.72 µM.

For `NS(=O)(=O)OCC(C(=O)Nc1ccc2ccccc2c1)c1csc2ccc(Cl)cc12` (stereo not shown) [Cpd 120, Sulfamic acid 2-(5-chloro-benzo[b]thiophen-3-yl)-2-(naphthalen-2-ylcarbamoyl)-ethyl ester], which IC50 is on record?
The IC50 was 5.86 ± 1.08 µM.

How did the IC50 turn out when `O=C(Nc1cc2ccccc2cc1C(=O)N1CCC(c2ccccc2)C1)C(c1cccc2ccccc12)P(=O)(O)O` (stereo not shown) [Cpd 87] was run?
Its IC50 is 2.04 µM.

Which IC50 does the source give for `CP(=O)(O)C(C(=O)N/C=C/c1cccc([N+](=O)[O-])c1)c1csc2ccc(Cl)cc12` (stereo not shown) [Cpd 166] here?
The IC50 was 0.0387 ± 0.02 µM.

For `Cn1cc(C(C(=O)Nc2ccc3ccccc3c2)P(=O)(O)O)c2cccc(Cl)c21` (stereo not shown) [Cpd 58], which IC50 is on record?
The IC50 was 0.63 ± 0.13 µM.

For `O=C(Nc1cc2ccccc2cc1C(=O)N1CCC(c2ccccc2)CC1)C(c1cccc2ccccc12)P(=O)(O)O` (stereo not shown) [Cpd 101], which IC50 is on record?
The IC50 was 3.12 µM.

For `Nc1cc2ccccc2cc1NC(=O)C(c1cccc2ccccc12)P(=O)(O)O` (stereo not shown) [Cpd 132], which IC50 is on record?
Its IC50 is 7.9 µM.

Which IC50 does the source give for `O=C(Nc1ccc2ccccc2c1)C(c1csc2ccc(Cl)cc12)P(=O)(O)CCCCc1ccccc1` (stereo not shown) [Cpd 51] here?
The IC50 was 0.46 ± 0.06 µM.

Which IC50 does the source give for `O=C(Nc1ccccc1)OCc1cc2ccccc2cc1NC(=O)C(c1cccc2ccccc12)P(=O)(O)O` (stereo not shown) [Cpd 94] here?
Its IC50 is 2.75 µM.

For `Cn1cc(C(C(=O)Nc2ccc3ccccc3c2)P(=O)(O)O)c2ccc(Cl)cc21` (stereo not shown) [Cpd 52], which IC50 is on record?
Its IC50 is 0.48 ± 0.18 µM.
